# Reference: patent US4839374A, “4-((Bicyclic heterocyclyl)-methyl and -hetero)-piperidines” (Janssen Pharmaceutica, N.V., priority 1987, dated 1989)
# Like-named read-outs stand apart in the source and are kept apart here.
# Tests used:
# [1] = tested on: compound 48/80-induced lethality; experiment: Protection of rats from compound 48/80-induced lethality; type: in vivo, rats of an inbred Wistar strain; conditions: Rattus norvegicus, 4 h, read-out: Compound 48/80 lethality test in rats ED50, s.c. or p.o. 1 h before compound 48/80 0.5 mg/kg i.v.; protection of 50% of animals, survival after 4 hours
# In short: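 Male inbred Wistar rats (240-260 g), starved overnight, dosed subcutaneously or orally with compound or 0.9% NaCl before compound 48/80 challenge. Survival at 4 hours counted as protection. ED50 in mg/kg is the dose protecting 50% of animals from lethality.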
# effects of serotonin = experiment: Antagonistic activity on the effects of serotonin in the gastric lesion test (lesions induced by compound 48/80); type: in vivo, rats of a Wistar inbred strain; conditions: Rattus norvegicus, po, read-out: gastric lesion test ED50
# Procedure: Antagonistic activity on the effects of serotonin in the gastric lesion test.
# The shock, followed by dead, can be avoided if the rats are pretreated with a classical H 1 antagonist.
# Male rats of a Wistar inbred strain, weighing 220-250 g, were starved overnight, water being available ad libitum. The test compounds were administered orally as a solution or as a suspension in aqueous medium. A control rat and a "blank" rat received the test compound. One hour later 5-[4-(diphenylmethyl)1-piperazinylmethyl]-1-methyl-1H-benzimidazole-2-methanol was administered subcutaneously to all rats at the dose of 2.5 mg/kg. […] Four hours after the intravenous injection of compound 48/80, the rats were decapitated and the stomachs were removed. Subsequently the stomachs were inspected for distension and contents (blood, fluid, food) and thoroughly rinsed. The macroscopic lesions were scored from 0 to +++, 0 corresponding to complete absence of visible lesions and the highest score corresponding to reddish rough patches covering more than half the glandular area.
# The second column of tables 1-4 show for a number of compounds of formula (I) the doses (in mg/kg body weight) at which the distension of the stomach as well as the lesions in the glandular area of the stomach are completely absent in 50% of the test rats (ED50 -value).
# [2] = compound 48/80 1 mg/kg i.v., distension and lesions of stomach completely absent in 50% of rats
SMILES,ED50 [1] [mg/kg],ED50 (effects of serotonin; [2]) [mg/kg],ED50 (effects of serotonin) [mg/kg]
"Fc1ccc(Cn2c(CC3CCN(CCNc4ncc[nH]4)CC3)nc3ccccc32)cc1 [Compound 453, 4-[[1-[(4-fluorophenyl)methyl]-1H-benzimidazol-2-yl]methyl]-N-(1H-imidazol-2-yl)-1-piperidineethanamine]",0.04,0.02,–
"Fc1ccc(Cn2c(CC3CCN(CCn4c(=S)[nH]c5ccccc54)CC3)nc3ccccc32)cc1 [Compound 493, 1-[2-[4-[[1-[(4-fluorophenyl)methyl]-1H-benzimidazol-2-yl]methyl]-1-piperidinyl]ethyl]-1,3-dihydro-2H-benzimidazole-2-thione]",0.08,–,0.04
COc1ccc(CCN2CCC(Cc3nc4cccnc4n3Cc3ccccc3)CC2)cc1 [Compound 198],0.04,–,0.08
"CC(=O)CCN1CCC(Cc2nc3ccccc3n2Cc2ccc(F)cc2)CC1 [Compound 102, 4-[4-[[1-[(4-fluorophenyl)methyl]-1H-benzimidazol-2-yl]methyl]-1-piperidinyl]-2-butanone]",0.02,0.31,–
"COc1ncccc1C(=O)NCCN1CCC(Cc2nc3ccccc3n2Cc2ccc(F)cc2)CC1 [Compound 438, N-[2-[4-[[1-[(4-fluorophenyl)methyl]-1H-benzimidazol-2-yl]methyl]-1-piperidinyl]ethyl]-2-methoxy-3-pyridinecarboxamide]",0.08,0.16,–
Cc1nc2n(c(=O)c1CCN1CCC(Cc3nc4ccccc4n3Cc3ccco3)CC1)CCCC2 [Compound 226],0.08,–,0.04
"CCOC(=O)c1csc(NCCN2CCC(Cc3nc4ccccc4n3Cc3ccc(F)cc3)CC2)n1 [Compound 455, ethyl 2-[(2-[4-[(1-[(4-fluorophenyl)methyl]-1H-benzimidazol-2-yl]methyl]-1-piperidinyl]ethyl]amino]-4-thiazolecarboxylate]",0.04,0.63,–
"Nc1ccccc1C(=O)NCCN1CCC(Cc2nc3ccccc3n2Cc2ccc(F)cc2)CC1 [Compound 468, 2-amino-N-[2-[4-[[1-[(4-fluorophenyl)methyl]-1H-benzimidazol-2-yl]methyl]-1-piperidinyl]ethyl]benzamide]",0.02,0.63,–
"Cc1nc2ccccn2c(=O)c1CCN1CCC(Sc2nc3ccccc3n2Cc2ccc(F)cc2)CC1 [Compound 244, 3-[2-[4-[[1-[(4-fluorophenyl)methyl]-1H-benzimidazol-2-yl]thio]-1-piperidinyl]-ethyl]-2-methyl-4H-pyrido[1,2-a]pyrimidin-4-one]",0.16,0.31,–
Cc1ncsc1CCN1CCC(Cc2nc3ccccc3n2Cc2ccc(F)cc2)CC1 [Compound 182],0.04,0.63,–
O=c1[nH]c2ccccc2c(=O)n1CCN1CCC(Cc2nc3cccnc3n2Cc2ccc(F)cc2)CC1 [Compound 224],0.04,–,0.08
Cc1nc2c(NCCN3CCC(Cc4nc5ccccc5n4Cc4ccc(F)cc4)CC3)ncnc2n1C [Compound 372],0.04,0.16,–
Fc1ccc(Cn2c(CC3CCN(C4CCCCC4)CC3)nc3ccccc32)cc1 [Compound 99],0.04,0.31,–
Cc1nc2ccccn2c(=O)c1CCN1CCC(Cc2nc3ccccc3n2Cc2ccco2)CC1 [Compound 218],0.04,–,0.04
CC(C)N1CCC(Cc2nc3ccccc3n2Cc2ccccc2)CC1 [Compound 94],0.08,0.63,–
COc1ccc(CCN2CCC(Cc3nc4ccc(O)cc4n3Cc3ccc(F)cc3)CC2)cc1 [Compound 276],0.04,0.31,–
CN1CCC(Cc2nc3cccnc3n2Cc2ccc(F)cc2)CC1 [Compound 90],0.01,0.31,–
Fc1ccc(Cn2c(CC3CCN(CCNc4ncccn4)CC3)nc3ccccc32)cc1 [Compound 374],0.02,0.02,–

SMILES,ED50 [1] [mg/kg],ED50 (effects of serotonin; [2]) [mg/kg],ED50 (effects of serotonin) [mg/kg]
c1csc(Cn2c(CC3CCN(CCNc4nccs4)CC3)nc3ccccc32)c1 [Compound 356],0.02,–,0.08
"Oc1nc2cncnc2n1CCN1CCC(Cc2nc3ccccc3n2Cc2ccc(F)cc2)CC1 [Compound 502, 9-[2-[4-[[1-[(4-fluorophenyl)methyl]-1H-benzimidazol-2-yl]methyl]-1-piperidinyl]ethyl]-9H-purin-8-ol]",0.08,0.16,–
O=c1cc[nH]c(=O)n1CCN1CCC(Cc2nc3ccccc3n2Cc2ccc(F)cc2)CC1 [Compound 164],0.02,0.02,–
CCOCCN1CCC(Cc2nc3cccnc3n2Cc2ccc(F)cc2)CC1 [Compound 126],0.04,0.63,–
O=C(NCCN1CCC(Cc2nc3cccnc3n2Cc2ccc(F)cc2)CC1)c1ccoc1 [Compound 432],0.04,0.31,–
Fc1ccc(Cn2c(CC3CCN(CCNc4nc5ccccc5s4)CC3)nc3ccccc32)cc1 [Compound 367],0.16,0.16,–
COc1ccc(CCN2CCC(Cc3nc4cccnc4n3Cc3ccc(F)cc3)CC2)cc1 [Compound 236],0.08,0.63,–
"Oc1ccc(CCN2CCC(Cc3nc4ccc(O)cc4n3Cc3ccc(F)cc3)CC2)cc1 [Compound 505, 1-[(4-fluorophenyl)methyl]-2-[[1-[2-(4-hydroxyphenyl)ethyl]-4-piperidinyl]-methyl]-1H-benzimidazol-6-ol]",0.04,–,0.04
c1cnc(NCCN2CCC(Cc3nc4ccccc4n3Cc3ccco3)CC2)nc1 [Compound 334],0.005,0.31,–
"Fc1ccc(Cn2c(CC3CCN(C4CCN(c5ncccn5)CC4)CC3)nc3ccccc32)cc1 [Compound 347, 4-[[1-[(4-fluorophenyl)methyl]-1H-benzimidazol-2-yl]methyl]-1'-(2-pyrimidinyl)-[1,4'-bipiperidine]]",0.08,0.63,–
O=c1[nH]c2ccccc2c(=O)n1CCN1CCC(Cc2nc3ccccc3n2Cc2cscn2)CC1 [Compound 187],0.04,0.31,–
"CNc1ccccc1C(=O)NCCN1CCC(Cc2nc3ccccc3n2Cc2ccc(F)cc2)CC1 [Compound 467, N-[2-[4-[[1-[(4-fluorophenyl)methyl]-1H-benzimidazol-2-yl]methyl]-1-piperidinyl]ethyl]-2-(methylamino)benzamide]",0.04,–,0.08
"O=C(c1ccccc1)N(CCN1CCC(Cc2nc3ccccc3n2Cc2ccc(F)cc2)CC1)c1ncccn1 [Compound 508, N-[2-[4-[[1-[(4-fluorophenyl)methyl]-1H-benzimidazol-2-yl]methyl]-1-piperidinyl]ethyl]-N-(2-pyrimidinyl)benzamide]",0.08,0.16,–
Fc1ccc(Cn2c(CC3CCN(CCN4CCOCC4)CC3)nc3cccnc32)cc1 [Compound 124],0.04,0.31,–
c1coc(Cn2c(CC3CCN(CCNc4nccs4)CC3)nc3ccccc32)c1 [Compound 335],0.02,0.16,–
COc1ccc(CCN2CCC(Cc3nc4ccccc4n3Cc3ccco3)CC2)cc1 [Compound 229],0.04,0.63,–
Cc1nc2ccccn2c(=O)c1CCN1CCC(Cc2nc3cccnc3n2Cc2ccc(F)cc2)CC1 [Compound 177],0.04,0.31,–
